Reference: US9573975B2, “Melanoma antigen peptide and uses thereof” (INSERM (INSTITUT NATIONAL DE LA SANTE ET DE LA RECHERCHE …, priority 2012, dated 2017)

Tests used:
Assay type in all cases: cell-based, human
[1] = system: CD4 T cells in PBMC from melanoma patients; test: PBMC from melanoma patients stimulated with MELOE-1, restimulated with peptides, CD4/IFN-γ and CD4/IL4 staining
Experimental: FIG. 2: (A) Percentages of cytokine producing CD4 T cells among positive microcultures. Fourteen days after PBMC stimulation with MELOE-1 whole polypeptide (2-46), microcultures were re-stimulated with each indicated peptide during 5 hours. IFN-γ (left panel) and IL4 (right panel) production was then assessed by a triple labeling IFN-γ-IL4-CD4. Results were analyzed with a non-parametric test (Kruskal-Wallis) followed by a Dunns post-test. (B) Frequency of microcultures containing CD4 T cells specific for MELOE-1 peptides (assessed by IFN-γ or IL4 intracellular staining after re-stimulation with the 3 indicated peptides). 576 microcultures (from 10 melanoma patients) were analyzed by a contingency table followed by a Fisher exact test.
PBMC from melanoma patients were stimulated with 10 μM of MELOE-1. After 14 days, the presence of CD4 T cells specific for the different regions of MELOE-1 was assessed by restimulating cells with MELOE-12-21, MELOE-111-30 and MELOE-122-46 peptides, followed by CD4/IFN-γ double staining for the detection of Th1 responses, and by CD4/IL4 double staining for Th2 responses. Between brackets is indicated the mean % of cytokine producing CD4 T cells, in positive microcultures.
(§1) PBMC from healthy donors or melanoma patients (2·10^5 cells/well) were cultured for 14 days with 10 μM of MELOE-1 whole antigen (46 amino acids) in RPMI medium supplemented with 8% HS, 50 IU/ml of rIL-2 (Chiron, France) and L-Glutamin, in 96-well multiplates. Micro cultures were then restimulated individually with each overlapping peptide (MELOE-12-21, MELOE-111-30, MELOE-118-37, MELOE-126-46 or MELOE-122-46 for melanoma patients) in the presence of 10 μg/mL brefeldin A for 5 hours and the percentage of CD4^+ specific T cells was assessed by TNF-α, IFN-γ or IL-4 intracellular staining A negative control without peptide was included in all experiments.
(§2) Lymphocytes were stimulated for 5 hours in the presence of brefeldin A (10 μg/mL) either with peptide alone (10 μM) in an autopresentation assay or with B-EBV or HLA-class II expressing melanoma cells pulsed 2 hours with the cognate peptide, at a ratio 1:2. In some experiments, blocking mAb against HLA-DP (clone B7.21 from Dr Charron, UMR940, Paris), HLA-DQ (clone SPVL3, Beckman Coulter) or HLA-DR (clone L243, BD Biosciences) were added at a concentration of 12.5 μg/ml. Cells were then stained with APC-conjugated anti-CD4 mAb, fixed with 4% paraformaldehyde, labeled with PE-conjugated anti-cytokine mAb and analyzed by flow cytometry.
In order to confirm the immunogenicity of each MELOE-1 regions in melanoma patients, we stimulated melanoma patients PBMC with the MELOE-1 whole protein, and tested the reactivity of stimulated lymphocytes towards the three most immunogenic regions: 2-21, 11-30, and 22-46. For this study, instead of challenging microcultures with the 18-37 peptide, that appeared poorly immunogenic, we extended the C-terminus region from 26-46 to 22-46, in order to also detect responses to our previously described HLA-DR11-restricted epitope (24-37). […] We tested the induction of CD4 specific responses from MELOE-1 stimulated PBMC of 10 melanoma patients. We documented CD4 responses specific for the central region of MELOE-1 (11-30) for 7/9 patients, whereas responses specific for MELOE-12-21 and MELOE-122-46 were respectively detected in 4/9 and 5/9 patients (Table III). These responses were mainly Th1 responses (IFN-g production) while less frequent Th2 responses specific for the three regions of MELOE-1 were detected in 3/9 patients for MELOE-12-21, 2/9 patients for MELOE-111-30 and 5/9 patients for MELOE-122-46 (Table III). […] Concerning Th2 responses, much less frequent, the C-term region appeared to induce more frequently the growth of IL-4 producing CD4 T cells than the two other regions (FIG. 2A). […]

[2] = system: CD4 T cells in PBMC from healthy donors; test: PBMC from healthy donors stimulated with MELOE-1, restimulated with overlapping peptides, CD4/TNF-α staining; settings: for healthy donors in whom CD4 responses against the region were detected: seven healthy donors, TNFα production
Experimental: FIG. 1: (A) Percentages of TNF-α producing CD4 T cells among positive microcultures. Fourteen days after PBMC stimulation with MELOE-1 whole polypeptide (2-46), microcultures were re-stimulated with each indicated peptide during 5 hours. TNF-α production was then assessed by a double labeling TNF-α-CD4. Results were analyzed with a non-parametric test (Kruskal-Wallis) followed by a Dunns post-test. (B) Frequency of microcultures containing CD4 T cells specific for MELOE-1 peptides (assessed by TNF-α intracellular staining after re-stimulation with the 4 indicated peptides). 624 microcultures (from 7 healthy donors) were analyzed by a contingency table followed by a Fisher exact test.
PBMC from healthy donors were stimulated with 10 μM of MELOE-1. After 14 days, the presence of CD4 T cells specific for the different regions of MELOE-1 was assessed by restimulating cells with MELOE-12-21, MELOE-111-30, MELOE-118-37 and MELOE-126-46 peptides, followed by CD4/TNF-α double staining and flow cytometry analysis. Between brackets is indicated the mean % of TNF-α producing CD4 T cells, in positive microcultures. NA: not available.
as §1, §2
Our purpose was to look for the existence of class II helper epitopes all along MELOE-1 sequence (SEQ ID NO: 20), in order to document the immunogenicity of the different regions of this melanoma antigen. We stimulated 2·10^7 PBMC from seven healthy donors with MELOE-1 whole antigen and tested, after a 14-day culture period the presence of CD4 T cells specific for each region of the protein. Microcultures were screened for TNFα production by CD4+ T cells, after restimulation with four MELOE-1 derived overlapping peptides (Table I), in an autopresentation assay. […] On the contrary, the central region 18-37, containing an already described DR11-restricted epitope (24-37) located just at the end of this 20-mer peptide (Rogel et al., 2011), induced specific responses in microcultures deriving from only 2/7 donors (HD9 and HD17, both expressing the DR11 element). In these two donors, we detected 6 and 7% of positive microcultures, containing between 0.6 to 3.7% of TNFα producing CD4 T cells.

[3] = system: MELOE-126-46 specific CD4 T cell clone (4E2-DQβ1*0201); test: Peptide stimulation of CD4 T cell clone 4E2, intracellular cytokine staining
Experimental: (§3) FIG. 5: Minimal peptides recognized by MELOE-1 specific CD4 T cell clones. MELOE-1 specific CD4 T cell clones were incubated with various concentrations of the indicated peptides during 5 hours in presence of Brefeldin A. TNF-α production was assessed by intracellular labeling with an anti-TNF-α specific antibody. The core peptide sequence is indicated in bold on each figure panel, and black circles illustrate the best fitting peptide.
as §2
(§4) We also documented the T helper profile of each T cell clone, by stimulating the CD4 T cell clones with the cognate peptide, and analyzing cytokine production. All the clones expressed Th1 cytokines (TNFα, IFNγ, IL2 and GM-CSF). On the contrary, these clones differ in their expression of Th2 cytokines. Indeed, the two DQ2 restricted T cell clones (9C12 and 4E2) and the DR1 restricted one (5F9) also strongly express two Th2 cytokines (IL4, and IL13), whereas the DR11-restricted T cell clone only weakly expressed IL4 (Table IV). None of the CD4 T cell expresses IL10 or IL5 at a significant level.
(§5) Three shorter peptides were better recognized by the DQ2-restricted 9C12 T cell clone, the shortest one being MELOE-17-19 (13-mer), recognized with an EC50 of 100 nM. The deletion of the two amino acids in C-term strongly reduces T cell clone recognition. […] Nonetheless all of these clones recognized a series of shortened peptides, thus we cannot formally assess that the shortest ones will be the exact peptides naturally presented on class II molecules.

[4] = system: MELOE-1 specific T cell clones; test: HLA restriction of MELOE-1 specific T cell clones (anti-HLA blocking antibodies, HLA-matched B-EBV cell lines); settings: T cell clone 4E2 (from HD25)
Experimental: FIG. 3: HLA-restricting element of MELOE-1 specific T cell clones and reactivity against HLA-matched melanoma cell lines. The HLA restriction of MELOE-1 specific T cell clones was first assessed using anti-HLA blocking antibodies (upper panel). T cell clones were stimulated for 5 hours in the presence of brefeldin A (10 μg/mL) either with peptide alone (10 μM) in an autopresentation assay and in presence or not of blocking antibodies at a concentration of 12.5 μg/mL. HLA restriction was confirmed with HLA-matched B-EBV cell lines pulsed 2 hrs with the cognate peptide, at a ratio 1:2 (middle panel). Reactivity of each T cell clone against HLA-class II expressing melanoma cells was assessed, in presence or not of exogeneous peptide (lower panel). After 5 hours of stimulation, cells were then stained with APC-conjugated anti-CD4 mAb, fixed with 4% paraformaldehyde, labeled with PE-conjugated anti-TNF-α mAb and analyzed by flow cytometry.
as §2
In order to formally characterize the recognized epitopes, we derived CD4 T cell clones specific for each region of MELOE-1 by limiting dilution, from microcultures of healthy donors or melanoma patients, containing at least 0.5% of specific CD4 T cells. We succeeded to derive CD4 specific T cell clones from HD17, HD22, HD25 and Pt≠3 microcultures, which were reactive against MELOE-12-21 (HD22), MELOE-111-30 (HD17 and Pt≠3) and MELOE-126-46 (HD25). From each cloning experiment, we obtained between one and ten reactive CD4 T cell clones, that turned out to be the same clonotype after CDR3B sequencing (Table IV). A single CD4 T cell clone for each specificity was used for further experiments. The HLA-restriction was determined for each T cell clone, first by using HLA-class II blocking monoclonal antibodies (FIG. 3, upper panel), and further by testing the recognition of HLA-matched B-EBV cell lines loaded with each recognized long peptide (FIG. 3 middle panel). The two T cell clones named 9C12 and 4E2, derived from HD22 and HD25 and specific for MELOE-12-21 and MELOE-126-46 were restricted by the HLA-DQβ1*0202 and the DQβ1*0201 molecules respectively. […]

[5] = system: MELOE-111-30 specific CD4 T cell clone (5F9-DRβ1*0101); test: Peptide stimulation of CD4 T cell clone 5F9, intracellular cytokine staining; settings: DRβ1*0101 restricted T cell clone (5F9)
Experimental: as §3, §2, §4, §5

[6] = clone 4E2, cognate peptide 10 μM, 5 hours

AACPPWHPSERISSTLNDECWPASL [MELOE-122-46]
mean % of cytokine producing CD4 T cells, in positive microcultures (IFN-γ, Th1) ([1]; Pt ≠ 1): (4.8% ± 7.2) | mean % of cytokine producing CD4 T cells, in positive microcultures (IL4, Th2) ([1]; Pt ≠ 1): (0.8% ± 0.3) | mean % of cytokine producing CD4 T cells, in positive microcultures (IFN-γ, Th1) ([1]; Pt ≠ 2): (0.6% ± 0.02) | mean % of cytokine producing CD4 T cells, in positive microcultures (IFN-γ, Th1) ([1]; Pt ≠ 3): (1.9% ± 1.3) | mean % of cytokine producing CD4 T cells, in positive microcultures (IL4, Th2) ([1]; Pt ≠ 5): (0.8%) | mean % of cytokine producing CD4 T cells, in positive microcultures (IFN-γ, Th1) ([1]; Pt ≠ 7): (2.9% ± 3.5) | mean % of cytokine producing CD4 T cells, in positive microcultures (IL4, Th2) ([1]; Pt ≠ 7): (1.5% ± 0.7) | mean % of cytokine producing CD4 T cells, in positive microcultures (IFN-γ, Th1) ([1]; Pt ≠ 8): (0.5%) | mean % of cytokine producing CD4 T cells, in positive microcultures (IL4, Th2) ([1]; Pt ≠ 8): (0.6%) | mean % of cytokine producing CD4 T cells, in positive microcultures (IL4, Th2) ([1]; Pt ≠ 9): (0.7% ± 0.15) | Th1 responses, share of tested microcultures ([1]; of 576 tested microcultures, melanoma patients): 9.6% | melanoma patients with CD4 specific responses (mainly Th1, IFN-g production) ([1]; responding/tested patients): 5/9 | melanoma patients with Th2 responses ([1]; responding/tested patients, IL4): 5/9

PSEGAACPPWHPSERISSTL [MELOE-118-37]
mean % of TNF-α producing CD4 T cells, in positive microcultures ([2]; donor HD17): (3% ± 0.7) | healthy donors in whom CD4 responses against the region were detected [2]: 2/7

PWHPSERISSTLNDECWPASL [MELOE-126-46]
mean % of TNF-α producing CD4 T cells, in positive microcultures ([2]; donor HD22): (1% ± 0.1) | healthy donors in whom CD4 responses against the region were detected [2]: 4 out of 7 | Cytokine profile: GM-CSF [3, 6]: GM-CSF ^high | Cytokine profile: IFN [3, 6]: IFN ^high | Cytokine profile: IL2 [3, 6]: IL2 ^high | Cytokine profile: IL4 [3, 6]: IL4 ^high | Cytokine profile: IL5 [3, 6]: IL5 ^low | Cytokine profile: IL10 [3, 6]: IL10 ^neg | Cytokine profile: IL13 [3, 6]: IL13 ^high | Cytokine profile: TNF ([3]; clone 4E2, cognate peptide 10 μM, 5 hours, autopresentation): TNF ^high | HLA-restricting element of the peptide-specific T cell clone [4]: DQβ1*0201

RISSTLNDECWPA [Peptide 32-44]
recognition by T cell clone (TNF-α production) ([3]; T cell clone 4E2, compared with 31-44): recognized to a lower extent

SREQFLPSEGAAC [MELOE-112-24]
recognition by T cell clone (TNF-α production) [5]: optimal shorter peptides

TSREQFLPSEGAA [MELOE-111-23]
recognition by T cell clone (TNF-α production) [5]: optimal shorter peptides
